Source: ChEMBL document CHEMBL1152934, “Quinazolindione derivatives as potent 5-HT3A receptor antagonists” (Bioorg Med Chem, 2009)

Target: Voltage-dependent T-type calcium channel subunit alpha-1G (Homo sapiens, UniProt O43497)
Assay: Antagonist activity against T-type calcium channel alpha1G; call rule not given here
Type: functional

Sequence of Voltage-dependent T-type calcium channel subunit alpha-1G (O43497 whole entry): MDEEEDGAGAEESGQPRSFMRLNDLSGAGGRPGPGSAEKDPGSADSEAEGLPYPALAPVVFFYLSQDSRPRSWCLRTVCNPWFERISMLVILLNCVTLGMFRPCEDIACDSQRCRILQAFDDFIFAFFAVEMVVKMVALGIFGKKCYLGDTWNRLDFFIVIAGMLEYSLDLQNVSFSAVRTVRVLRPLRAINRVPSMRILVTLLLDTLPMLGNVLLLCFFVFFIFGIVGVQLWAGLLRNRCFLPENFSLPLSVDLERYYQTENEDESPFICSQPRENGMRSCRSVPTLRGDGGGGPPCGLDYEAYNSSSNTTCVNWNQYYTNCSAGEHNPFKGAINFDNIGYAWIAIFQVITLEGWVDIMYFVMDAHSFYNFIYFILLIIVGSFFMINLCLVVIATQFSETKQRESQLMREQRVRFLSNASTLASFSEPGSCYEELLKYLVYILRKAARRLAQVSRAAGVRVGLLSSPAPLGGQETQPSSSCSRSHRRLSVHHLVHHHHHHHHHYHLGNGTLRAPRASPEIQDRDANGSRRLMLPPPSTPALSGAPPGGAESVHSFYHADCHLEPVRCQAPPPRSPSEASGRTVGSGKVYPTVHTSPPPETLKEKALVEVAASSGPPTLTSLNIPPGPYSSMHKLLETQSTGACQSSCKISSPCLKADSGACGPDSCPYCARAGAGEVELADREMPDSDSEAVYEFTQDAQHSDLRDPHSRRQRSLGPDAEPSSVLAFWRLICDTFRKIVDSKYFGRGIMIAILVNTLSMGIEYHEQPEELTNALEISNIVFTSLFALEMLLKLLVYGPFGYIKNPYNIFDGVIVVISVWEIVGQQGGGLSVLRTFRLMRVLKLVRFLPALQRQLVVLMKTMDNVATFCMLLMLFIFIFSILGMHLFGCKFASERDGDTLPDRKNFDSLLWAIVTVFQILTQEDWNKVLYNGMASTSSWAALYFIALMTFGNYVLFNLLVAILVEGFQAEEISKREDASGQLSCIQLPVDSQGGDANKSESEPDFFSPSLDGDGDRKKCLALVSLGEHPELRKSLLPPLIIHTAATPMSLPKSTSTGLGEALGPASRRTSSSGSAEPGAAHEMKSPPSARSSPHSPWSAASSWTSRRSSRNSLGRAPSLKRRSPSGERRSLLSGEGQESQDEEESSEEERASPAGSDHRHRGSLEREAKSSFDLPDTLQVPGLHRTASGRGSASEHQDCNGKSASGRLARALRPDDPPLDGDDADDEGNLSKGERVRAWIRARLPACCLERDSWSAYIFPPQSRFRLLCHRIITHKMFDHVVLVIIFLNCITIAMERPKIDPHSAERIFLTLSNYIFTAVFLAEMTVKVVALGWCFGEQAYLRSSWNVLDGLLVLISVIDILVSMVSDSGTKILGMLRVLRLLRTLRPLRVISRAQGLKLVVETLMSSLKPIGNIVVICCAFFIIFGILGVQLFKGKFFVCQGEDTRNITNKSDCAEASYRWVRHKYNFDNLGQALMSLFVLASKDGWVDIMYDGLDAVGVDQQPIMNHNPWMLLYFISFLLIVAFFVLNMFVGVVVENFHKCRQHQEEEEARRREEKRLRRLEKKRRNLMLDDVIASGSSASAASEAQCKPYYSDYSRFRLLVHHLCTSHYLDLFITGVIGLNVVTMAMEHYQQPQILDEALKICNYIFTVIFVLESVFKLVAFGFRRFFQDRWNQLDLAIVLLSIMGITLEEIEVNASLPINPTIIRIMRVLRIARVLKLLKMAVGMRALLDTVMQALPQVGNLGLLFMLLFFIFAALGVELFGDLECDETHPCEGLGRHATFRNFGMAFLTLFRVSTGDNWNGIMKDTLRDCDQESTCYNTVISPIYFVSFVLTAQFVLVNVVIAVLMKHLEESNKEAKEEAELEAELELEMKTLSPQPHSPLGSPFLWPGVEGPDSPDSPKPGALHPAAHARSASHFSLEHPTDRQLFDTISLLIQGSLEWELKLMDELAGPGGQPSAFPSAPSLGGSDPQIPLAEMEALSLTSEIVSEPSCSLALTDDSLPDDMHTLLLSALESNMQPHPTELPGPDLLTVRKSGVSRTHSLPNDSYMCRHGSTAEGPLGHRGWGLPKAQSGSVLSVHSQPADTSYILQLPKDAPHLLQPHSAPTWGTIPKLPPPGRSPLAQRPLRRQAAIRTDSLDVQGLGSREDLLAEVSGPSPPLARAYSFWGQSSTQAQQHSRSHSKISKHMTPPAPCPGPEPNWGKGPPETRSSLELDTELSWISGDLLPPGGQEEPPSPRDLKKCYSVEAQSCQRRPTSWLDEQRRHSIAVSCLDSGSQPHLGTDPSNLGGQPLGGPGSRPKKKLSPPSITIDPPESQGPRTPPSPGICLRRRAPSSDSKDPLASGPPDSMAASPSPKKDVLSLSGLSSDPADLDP

Structure (SMILES)	IC50
O=C(NCCN1CCOCC1)c1ccc2c(=O)n(Cc3ccc(F)cc3)c(=O)[nH]c2c1	Not Active
O=C(NCCN1CCCCC1)c1ccc2c(=O)n(-c3ccc(F)cc3)c(=O)[nH]c2c1	Not Active
CCC1CCCCN1CCCNC(=O)c1ccc2c(=O)n(Cc3ccc(Cl)cc3)c(=O)[nH]c2c1 (stereo not drawn)	Not Active
CC1CCCCN1CCCNC(=O)c1ccc2c(=O)n(Cc3ccc(Cl)cc3)c(=O)[nH]c2c1 (stereo not drawn)	Not Active
O=C(NCCCN1CCOCC1)c1ccc2c(=O)n(Cc3ccc(Cl)cc3)c(=O)[nH]c2c1	Not Active
O=C(NCCN1CCOCC1)c1ccc2c(=O)n(-c3ccc(F)cc3)c(=O)[nH]c2c1	Not Active
O=C(NCCN1CCOCC1)c1ccc2c(=O)n(Cc3ccc(Cl)cc3)c(=O)[nH]c2c1	Not Active
CCCn1c(=O)[nH]c2cc(C(=O)NCCN3CCCCC3)ccc2c1=O	Not Active
O=C(NCCN1CCCCC1)c1ccc2c(=O)n(Cc3ccccc3Cl)c(=O)[nH]c2c1	Not Active
COc1ccccc1Cn1c(=O)[nH]c2cc(C(=O)NCCN3CCCCC3)ccc2c1=O	Not Active
COc1cccc(Cn2c(=O)[nH]c3cc(C(=O)NCCN4CCCCC4)ccc3c2=O)c1	Not Active
COc1ccc(Cn2c(=O)[nH]c3cc(C(=O)NCCN4CCCCC4)ccc3c2=O)cc1	Not Active
CC1CCCCN1CCCNC(=O)c1ccc2c(=O)n(C3CCCCC3)c(=O)[nH]c2c1 (stereo not drawn)	Not Active
Cn1c(=O)[nH]c2cc(C(=O)NCCN3CCCCC3)ccc2c1=O	Not Active
O=C(NCCN1CCCCC1)c1ccc2c(=O)n(Cc3ccccc3F)c(=O)[nH]c2c1	Not Active
CC1CCCCN1CCNC(=O)c1ccc2c(=O)n(Cc3ccc(Cl)cc3)c(=O)[nH]c2c1 (stereo not drawn)	Not Active
O=C(NCCN1CCCCC1)c1ccc2c(=O)n(C3CCCCC3)c(=O)[nH]c2c1	Not Active
COc1ccc(-n2c(=O)[nH]c3cc(C(=O)NCCN4CCCCC4)ccc3c2=O)cc1	Not Active
